Measurements as given in ChEMBL document CHEMBL1201862, “PubChem BioAssay data set” (2004).
The source made the active and inactive calls.

Tests used:
HEK293 = test: cells; type: functional, cell-based; details: Homo sapiens
[1] = biological target: T1, Nuclear receptor subfamily 0 group B member 1 (Homo sapiens, UniProt P51843); test: Luminescence-based cell-based high throughput dose response assay for inhibitors of the orphan nuclear receptor subfamily 0, group B, member 1 (DAX1; NR0B1). [Related pubchem assays (depositor defined):AID504766, AID504790]; type: functional
T1 sequence (P51843 whole entry): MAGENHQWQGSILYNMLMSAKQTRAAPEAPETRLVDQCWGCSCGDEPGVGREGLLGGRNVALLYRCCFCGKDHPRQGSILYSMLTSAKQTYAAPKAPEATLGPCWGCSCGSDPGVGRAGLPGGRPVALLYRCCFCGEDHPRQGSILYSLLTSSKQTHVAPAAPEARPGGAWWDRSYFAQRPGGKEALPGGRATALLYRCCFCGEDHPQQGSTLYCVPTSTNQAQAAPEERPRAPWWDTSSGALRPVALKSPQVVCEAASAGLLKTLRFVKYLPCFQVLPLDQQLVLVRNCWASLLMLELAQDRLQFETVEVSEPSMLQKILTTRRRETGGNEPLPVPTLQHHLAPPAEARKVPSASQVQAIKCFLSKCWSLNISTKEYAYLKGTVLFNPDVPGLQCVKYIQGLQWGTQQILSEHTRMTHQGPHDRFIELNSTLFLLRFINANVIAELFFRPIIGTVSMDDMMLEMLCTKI

[2] = biological target: Voltage-gated inwardly rectifying potassium channel KCNH2 (Homo sapiens, UniProt Q12809); details: Potency;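 further: confirmatory quantitative high-throughput screen measuring inhibition of hERG channel activity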
[3] = biological target: T2, Aryl hydrocarbon receptor (Homo sapiens, UniProt P35869); details: Potency;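 further: confirmatory quantitative high-throughput screen measuring activation of the AhR signaling pathway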
T2 sequence (P35869 whole entry): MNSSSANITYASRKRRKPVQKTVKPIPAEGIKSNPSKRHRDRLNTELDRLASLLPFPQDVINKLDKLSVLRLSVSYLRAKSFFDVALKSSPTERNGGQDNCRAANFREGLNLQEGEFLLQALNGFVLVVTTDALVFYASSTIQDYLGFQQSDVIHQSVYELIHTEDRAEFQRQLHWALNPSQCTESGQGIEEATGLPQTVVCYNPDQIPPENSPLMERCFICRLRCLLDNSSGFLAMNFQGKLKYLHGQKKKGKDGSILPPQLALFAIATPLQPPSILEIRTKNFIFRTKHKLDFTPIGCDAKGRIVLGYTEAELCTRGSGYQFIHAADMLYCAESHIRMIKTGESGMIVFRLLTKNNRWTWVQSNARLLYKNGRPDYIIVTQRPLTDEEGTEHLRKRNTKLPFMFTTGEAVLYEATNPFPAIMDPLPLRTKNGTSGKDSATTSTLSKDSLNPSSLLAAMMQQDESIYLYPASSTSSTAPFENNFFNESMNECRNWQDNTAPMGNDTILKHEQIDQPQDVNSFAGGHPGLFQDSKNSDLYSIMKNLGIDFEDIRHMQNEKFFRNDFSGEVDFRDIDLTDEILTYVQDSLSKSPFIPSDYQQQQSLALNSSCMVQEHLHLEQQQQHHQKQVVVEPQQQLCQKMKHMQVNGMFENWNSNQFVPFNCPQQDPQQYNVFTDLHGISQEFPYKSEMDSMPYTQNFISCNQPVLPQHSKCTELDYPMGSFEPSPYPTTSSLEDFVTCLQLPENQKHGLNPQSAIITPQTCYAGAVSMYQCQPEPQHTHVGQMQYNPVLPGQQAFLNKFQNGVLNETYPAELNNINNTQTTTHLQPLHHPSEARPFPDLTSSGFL

[4] = biological target: Glucose-6-phosphate 1-dehydrogenase (Homo sapiens, UniProt P11413); test: inhibition of Homo sapiens G6PD, dose series – biochemical, fluorescence, selectivity assay for P. falciparum G6PD inhibitor project, dose response (AID 504792); type: functional
[5] = biological target: T3, High affinity choline transporter 1 (Homo sapiens, UniProt Q9GZV3); test: human choline transporter blockers, potency – cell-based, 5-point CRC, membrane potential dye, dose response (AID 504840); type: functional
T3 sequence (Q9GZV3 whole entry): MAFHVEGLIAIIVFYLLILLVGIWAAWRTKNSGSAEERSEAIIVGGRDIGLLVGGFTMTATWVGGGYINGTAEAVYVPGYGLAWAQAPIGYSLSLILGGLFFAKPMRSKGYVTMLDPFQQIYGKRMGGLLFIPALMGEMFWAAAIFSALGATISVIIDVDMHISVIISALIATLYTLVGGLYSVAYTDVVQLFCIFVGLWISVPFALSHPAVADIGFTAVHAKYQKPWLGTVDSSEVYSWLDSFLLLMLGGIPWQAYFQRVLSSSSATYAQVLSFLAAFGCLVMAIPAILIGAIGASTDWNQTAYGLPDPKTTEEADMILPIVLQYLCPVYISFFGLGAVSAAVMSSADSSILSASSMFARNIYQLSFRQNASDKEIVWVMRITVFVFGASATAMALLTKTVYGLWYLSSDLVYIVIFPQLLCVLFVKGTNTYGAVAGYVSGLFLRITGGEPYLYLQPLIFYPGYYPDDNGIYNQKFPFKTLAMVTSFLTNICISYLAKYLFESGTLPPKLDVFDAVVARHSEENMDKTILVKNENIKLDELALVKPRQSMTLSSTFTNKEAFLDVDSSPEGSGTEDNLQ

[6] = biological target: T4, Polyadenylate-binding protein 1 (Homo sapiens, UniProt P11940); test: MLLE domain peptide-binding blockers, IC50 – biochemical, fluorescence polarization, FITC-PAM2 peptide, dose response (AID 602259); type: functional; details: read-out: IC50_Mean
[7] = biological target: Induced myeloid leukemia cell differentiation protein Mcl-1 (Homo sapiens, UniProt Q07820); type: functional
Protein RecA = biological target: T5, Protein RecA (Mycobacterium tuberculosis, UniProt P9WHJ3); test: Fluorescence Cell-Free Homogeneous Dose Retest to Identify Inhibitors of RecA-Intein Splicing Activity. [Related pubchem assays (depositor defined):AID2097, AID2223, AID489010, AID492950]; type: functional
T5 sequence (P9WHJ3 whole entry): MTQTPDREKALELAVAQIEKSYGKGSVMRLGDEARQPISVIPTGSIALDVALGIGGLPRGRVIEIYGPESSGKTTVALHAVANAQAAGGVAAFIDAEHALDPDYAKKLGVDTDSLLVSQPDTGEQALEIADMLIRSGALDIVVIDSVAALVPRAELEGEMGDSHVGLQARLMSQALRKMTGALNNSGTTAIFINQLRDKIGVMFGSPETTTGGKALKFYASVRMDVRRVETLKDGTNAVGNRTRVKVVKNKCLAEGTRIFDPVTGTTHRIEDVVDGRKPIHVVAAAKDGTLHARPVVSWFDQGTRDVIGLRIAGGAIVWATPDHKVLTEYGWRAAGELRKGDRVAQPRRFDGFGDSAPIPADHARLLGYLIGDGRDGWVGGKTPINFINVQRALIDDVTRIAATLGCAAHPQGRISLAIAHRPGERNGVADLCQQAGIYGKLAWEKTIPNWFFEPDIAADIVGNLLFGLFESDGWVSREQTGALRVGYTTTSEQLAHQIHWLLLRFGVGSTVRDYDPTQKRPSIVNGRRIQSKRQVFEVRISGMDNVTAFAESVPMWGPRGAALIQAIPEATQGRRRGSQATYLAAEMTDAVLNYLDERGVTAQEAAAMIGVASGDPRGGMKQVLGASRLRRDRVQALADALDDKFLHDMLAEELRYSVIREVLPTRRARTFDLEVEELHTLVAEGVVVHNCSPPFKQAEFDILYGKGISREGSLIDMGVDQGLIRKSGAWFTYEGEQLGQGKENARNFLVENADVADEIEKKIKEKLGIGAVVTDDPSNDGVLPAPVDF

Nonstructural protein 1 = Nonstructural protein 1 (Influenza A virus, UniProt Q194T2); type: functional, Influenza A virus (A/California/07/2009(H1N1))
[8] = biological target: T6, Replicative DNA helicase DnaB (Mycobacterium tuberculosis, UniProt P9WMR3); test: DnaB intein splicing inhibitors, dose response, biochemical, cell-free fluorescence (AID 449749); type: functional
T6 sequence (P9WMR3 whole entry): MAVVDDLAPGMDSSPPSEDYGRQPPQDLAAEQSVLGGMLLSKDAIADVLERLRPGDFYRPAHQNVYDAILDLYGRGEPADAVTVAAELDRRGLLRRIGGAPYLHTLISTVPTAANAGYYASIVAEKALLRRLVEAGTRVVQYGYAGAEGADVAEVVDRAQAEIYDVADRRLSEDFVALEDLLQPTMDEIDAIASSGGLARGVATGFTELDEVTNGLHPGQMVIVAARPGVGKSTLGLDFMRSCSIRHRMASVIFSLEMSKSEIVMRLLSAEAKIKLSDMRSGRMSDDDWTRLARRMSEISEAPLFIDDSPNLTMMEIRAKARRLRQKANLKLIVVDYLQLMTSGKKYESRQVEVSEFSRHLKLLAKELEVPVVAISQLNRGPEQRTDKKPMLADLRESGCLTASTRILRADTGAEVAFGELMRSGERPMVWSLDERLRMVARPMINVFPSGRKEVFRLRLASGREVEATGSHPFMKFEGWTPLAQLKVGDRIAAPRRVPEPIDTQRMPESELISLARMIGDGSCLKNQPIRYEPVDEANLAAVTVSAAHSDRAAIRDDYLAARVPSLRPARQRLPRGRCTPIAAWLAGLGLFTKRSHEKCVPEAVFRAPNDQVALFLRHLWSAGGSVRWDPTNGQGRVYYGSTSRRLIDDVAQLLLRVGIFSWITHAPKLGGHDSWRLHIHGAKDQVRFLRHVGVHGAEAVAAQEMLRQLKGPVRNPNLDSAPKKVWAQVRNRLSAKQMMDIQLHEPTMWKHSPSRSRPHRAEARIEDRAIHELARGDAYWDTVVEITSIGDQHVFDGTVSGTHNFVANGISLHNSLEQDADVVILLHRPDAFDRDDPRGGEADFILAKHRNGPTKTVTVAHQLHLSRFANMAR

[9] = biological target: T7, Apoptotic protease-activating factor 1 (Homo sapiens, UniProt O14727); type: functional
T7 sequence (O14727 whole entry): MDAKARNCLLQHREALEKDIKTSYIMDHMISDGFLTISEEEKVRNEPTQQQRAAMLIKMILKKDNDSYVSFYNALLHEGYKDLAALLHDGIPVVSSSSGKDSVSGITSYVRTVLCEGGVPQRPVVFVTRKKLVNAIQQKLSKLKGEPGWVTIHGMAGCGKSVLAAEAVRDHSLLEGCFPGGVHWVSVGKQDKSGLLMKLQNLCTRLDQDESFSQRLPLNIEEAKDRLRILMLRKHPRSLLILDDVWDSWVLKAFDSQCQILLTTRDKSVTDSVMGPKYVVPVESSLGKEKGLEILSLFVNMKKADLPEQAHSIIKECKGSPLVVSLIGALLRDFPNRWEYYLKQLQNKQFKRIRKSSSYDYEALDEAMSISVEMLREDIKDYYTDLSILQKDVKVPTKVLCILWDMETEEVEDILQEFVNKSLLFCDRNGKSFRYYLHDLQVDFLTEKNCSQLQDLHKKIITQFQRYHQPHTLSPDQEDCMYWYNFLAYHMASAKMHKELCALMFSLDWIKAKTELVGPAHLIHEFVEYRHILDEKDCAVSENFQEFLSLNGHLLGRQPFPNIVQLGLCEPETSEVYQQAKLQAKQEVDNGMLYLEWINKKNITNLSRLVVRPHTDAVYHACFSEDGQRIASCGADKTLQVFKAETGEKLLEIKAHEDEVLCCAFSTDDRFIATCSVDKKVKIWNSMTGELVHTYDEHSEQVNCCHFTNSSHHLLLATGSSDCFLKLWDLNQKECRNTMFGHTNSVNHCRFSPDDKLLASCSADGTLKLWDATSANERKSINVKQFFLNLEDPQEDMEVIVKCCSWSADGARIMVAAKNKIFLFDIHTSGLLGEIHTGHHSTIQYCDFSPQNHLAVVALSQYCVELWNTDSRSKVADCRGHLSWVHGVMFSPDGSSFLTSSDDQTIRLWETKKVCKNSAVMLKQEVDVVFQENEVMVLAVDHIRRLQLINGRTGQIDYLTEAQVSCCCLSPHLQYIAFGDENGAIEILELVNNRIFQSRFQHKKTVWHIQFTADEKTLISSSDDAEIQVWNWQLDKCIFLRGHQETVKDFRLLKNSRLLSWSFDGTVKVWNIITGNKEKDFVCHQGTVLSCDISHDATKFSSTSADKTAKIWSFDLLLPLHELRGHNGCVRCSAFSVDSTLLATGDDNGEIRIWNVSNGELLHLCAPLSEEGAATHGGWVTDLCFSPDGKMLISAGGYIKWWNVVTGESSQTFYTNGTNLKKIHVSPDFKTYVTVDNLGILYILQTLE

[10] = biological target: T4, Polyadenylate-binding protein 1; test: MLLE binding blockers, Cy5 peptide tracer – biochemical, fluorescence polarization, Cy5-PAM2 peptide, secondary, miRNA deadenylation inhibitor project, dose response (AID 602260); type: functional; details: read-out: IC50_Mean
CHO = CHO cell viability loss, potency – luminescence, cytotoxicity control for TLR9-MyD88 binding inhibitor project, dose response (AID 588339); type: functional, cell-based, hamster; details: Cricetulus griseus;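 further: CHO cells stably coexpressing TLR9 and MyD88 fusions from primary screen; compound exposure lasted 48 hours before viability readout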

Sequence of Voltage-gated inwardly rectifying potassium channel KCNH2 (Q12809 whole entry): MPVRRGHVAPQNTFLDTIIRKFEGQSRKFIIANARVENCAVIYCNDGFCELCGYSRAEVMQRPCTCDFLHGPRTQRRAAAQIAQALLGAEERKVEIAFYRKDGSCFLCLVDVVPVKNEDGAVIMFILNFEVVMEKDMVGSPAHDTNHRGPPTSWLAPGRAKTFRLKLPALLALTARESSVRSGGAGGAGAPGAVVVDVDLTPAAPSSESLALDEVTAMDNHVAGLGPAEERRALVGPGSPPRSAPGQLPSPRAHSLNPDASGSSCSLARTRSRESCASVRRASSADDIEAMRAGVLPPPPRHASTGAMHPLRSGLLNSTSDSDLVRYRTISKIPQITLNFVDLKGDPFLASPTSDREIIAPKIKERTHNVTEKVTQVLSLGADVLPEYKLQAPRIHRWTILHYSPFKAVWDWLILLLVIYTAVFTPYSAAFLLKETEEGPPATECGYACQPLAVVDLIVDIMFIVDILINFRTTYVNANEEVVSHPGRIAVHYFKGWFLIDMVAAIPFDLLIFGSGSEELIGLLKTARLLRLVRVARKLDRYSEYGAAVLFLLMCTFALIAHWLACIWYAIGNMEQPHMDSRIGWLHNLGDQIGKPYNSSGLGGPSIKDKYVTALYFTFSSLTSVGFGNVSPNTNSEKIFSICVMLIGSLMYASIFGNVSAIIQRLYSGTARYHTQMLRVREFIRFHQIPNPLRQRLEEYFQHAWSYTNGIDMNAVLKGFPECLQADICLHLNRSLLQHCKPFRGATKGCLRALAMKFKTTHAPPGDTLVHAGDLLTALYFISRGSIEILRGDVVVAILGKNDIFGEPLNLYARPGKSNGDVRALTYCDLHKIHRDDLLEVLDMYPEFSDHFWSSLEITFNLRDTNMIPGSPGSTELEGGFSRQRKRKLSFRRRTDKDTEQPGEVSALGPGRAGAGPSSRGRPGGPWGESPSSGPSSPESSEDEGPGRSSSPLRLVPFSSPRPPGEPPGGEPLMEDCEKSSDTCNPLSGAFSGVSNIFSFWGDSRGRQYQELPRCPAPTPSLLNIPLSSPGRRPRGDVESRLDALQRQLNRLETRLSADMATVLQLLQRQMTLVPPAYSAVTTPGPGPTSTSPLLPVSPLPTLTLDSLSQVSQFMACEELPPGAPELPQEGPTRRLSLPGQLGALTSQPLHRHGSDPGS
T4 sequence (P11940 whole entry, the tested form may be a part): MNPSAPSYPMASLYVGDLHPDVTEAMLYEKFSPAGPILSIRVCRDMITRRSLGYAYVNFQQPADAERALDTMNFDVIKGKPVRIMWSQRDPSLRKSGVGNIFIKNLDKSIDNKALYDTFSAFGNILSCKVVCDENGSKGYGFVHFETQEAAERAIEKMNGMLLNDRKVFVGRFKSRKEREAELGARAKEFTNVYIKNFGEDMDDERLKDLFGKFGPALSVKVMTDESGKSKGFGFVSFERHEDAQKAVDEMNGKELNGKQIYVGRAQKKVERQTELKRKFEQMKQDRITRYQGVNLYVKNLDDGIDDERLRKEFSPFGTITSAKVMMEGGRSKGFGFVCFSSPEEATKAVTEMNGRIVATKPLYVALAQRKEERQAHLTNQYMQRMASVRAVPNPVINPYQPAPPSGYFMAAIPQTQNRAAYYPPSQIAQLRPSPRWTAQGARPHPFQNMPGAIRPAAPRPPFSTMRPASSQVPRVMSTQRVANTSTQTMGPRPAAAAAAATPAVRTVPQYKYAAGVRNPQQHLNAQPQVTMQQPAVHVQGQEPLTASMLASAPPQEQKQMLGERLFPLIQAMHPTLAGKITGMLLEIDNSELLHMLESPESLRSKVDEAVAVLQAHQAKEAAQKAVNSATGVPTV
Sequence of Glucose-6-phosphate 1-dehydrogenase (P11413 whole entry): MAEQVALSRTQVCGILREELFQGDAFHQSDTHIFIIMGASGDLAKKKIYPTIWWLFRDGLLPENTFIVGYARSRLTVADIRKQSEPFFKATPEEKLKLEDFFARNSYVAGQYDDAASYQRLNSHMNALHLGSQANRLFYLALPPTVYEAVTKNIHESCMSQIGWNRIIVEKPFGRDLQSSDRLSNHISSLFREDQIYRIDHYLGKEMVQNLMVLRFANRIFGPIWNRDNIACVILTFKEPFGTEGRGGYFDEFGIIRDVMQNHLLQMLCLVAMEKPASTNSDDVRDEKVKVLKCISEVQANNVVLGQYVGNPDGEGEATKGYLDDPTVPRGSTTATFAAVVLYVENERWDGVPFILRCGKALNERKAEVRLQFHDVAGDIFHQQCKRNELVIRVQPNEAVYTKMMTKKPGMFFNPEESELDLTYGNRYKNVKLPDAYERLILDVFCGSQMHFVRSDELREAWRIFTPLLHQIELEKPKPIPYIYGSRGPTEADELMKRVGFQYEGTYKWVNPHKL
Sequence of Nonstructural protein 1 (Q194T2 whole entry): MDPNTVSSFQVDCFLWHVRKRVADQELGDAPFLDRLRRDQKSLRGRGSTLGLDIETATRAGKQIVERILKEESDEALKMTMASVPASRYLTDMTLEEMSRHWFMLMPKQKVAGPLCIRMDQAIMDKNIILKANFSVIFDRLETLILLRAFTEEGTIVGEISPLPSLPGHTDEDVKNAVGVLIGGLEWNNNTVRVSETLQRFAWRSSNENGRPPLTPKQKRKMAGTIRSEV
Sequence of Induced myeloid leukemia cell differentiation protein Mcl-1 (Q07820 whole entry): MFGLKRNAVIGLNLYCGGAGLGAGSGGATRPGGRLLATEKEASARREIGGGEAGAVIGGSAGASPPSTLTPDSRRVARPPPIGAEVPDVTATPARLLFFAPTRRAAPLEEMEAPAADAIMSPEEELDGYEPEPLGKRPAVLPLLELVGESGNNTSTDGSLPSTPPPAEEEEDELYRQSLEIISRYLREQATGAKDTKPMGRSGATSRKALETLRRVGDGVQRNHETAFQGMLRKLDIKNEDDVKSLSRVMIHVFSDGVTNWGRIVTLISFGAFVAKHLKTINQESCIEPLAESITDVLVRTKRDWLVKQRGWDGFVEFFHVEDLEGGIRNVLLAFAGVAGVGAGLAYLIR

CCOc1ccc(N(CC(=O)Nc2ccc(C)c(C)c2)S(C)(=O)=O)cc1
IC50 (HEK293): > 67.5 µM (inactive)
IC50 [1]: > 67.5 µM (inactive)

Nc1ccc(/N=N\c2ccccc2)c(N)c1
AC50 [2]: 50.1 µM (inconclusive)
AC50 [3]: 14.1 µM (inconclusive)

CCOP(=S)(OCC)SCSC(C)(C)C [TERBUFOS]
AC50 [2]: 39.8 µM (inconclusive)

O=C1Nc2cc(C(=O)NCCCN3CCCC3)ccc2S/C1=C\c1ccccc1
IC50 [4]: > 80 µM (inactive)
IC50 [5]: 14.5 µM (active)

Cc1cc(Cl)c2oc(C(=O)N(CCO)Cc3ccccc3)c(C)c2c1
IC50 (HEK293): > 67.5 µM (inactive)
IC50 [1]: > 67.5 µM (inactive)

Cc1ccc(NC2=C(NC(=O)c3ccccc3)C(=O)c3ccccc3C2=O)cc1Cl
IC50 [6]: > 66 µM (inactive)
IC50 [7]: 3.38 µM (active)
EC50 (Protein RecA): 2.52 µM (active)
IC50 [4]: > 80 µM (inactive)
IC50 (Nonstructural protein 1): 17.5 µM (active)
AC50 [8]: 3 µM (active)
IC50 [9]: 17 µM (active)
IC50 [10]: > 66 µM (inactive)

NNC(=O)c1oc2nc(-c3ccc(Cl)cc3)cc(-c3ccccc3)c2c1N
IC50 (CHO): > 49.7 µM (inactive)
